Key:
HSP70 = HSP70 immunofluorescence in V1S-SV2 primary cortical rat neurons; type: cell-based; settings: 10 μM
Experimental: (§1) To investigate the mechanism underlying these drug effects, experiments were directed towards the potential involvement of molecular chaperone HSP70. HSP70 is known to play an essential role in suppressing α-synuclein aggregation, and in particular the inhibition of α-synuclein oligomer formation (Tao et al., 2020). To investigate the in silico predictions of HSP70 interactions with top drug candidates from the Cyclica proteome screening, fluorescence intensity was measured in V1 S-SV2 primary cortical rat neurons (FIGS. 15A and E) for potential effects on α-synuclein oligomers.
Pregnant Sprague Dawley rats (E17) were purchased from Charles River. […] Cells were washed three more times before being counter-stained with DAPI for 5 mins and mounted using ProLong Gold mounting medium for fluorescence (ThermoFisher). […] Fluorescence intensity was analysed automatically using Imaris imaging software (Oxford Instruments) by measuring the mean fluorescence intensity of each individual fluorescent neuron using the “surfaces” module. This module detects fluorescence above background threshold in each field of view, identifies a cell body and neuronal projections of each cell, and calculates the mean fluorescence intensity of each fluorescent cell within the field of view. […] The value generated for each neuron was normalized to the mean of fluorescence intensity of neurons treated with vehicle alone. […]

HSP70 mRNA = test: Real-time quantitative RT-PCR of HSP70 mRNA in rat primary cortical neurons; type: cell-based; settings: 10 μM
Experimental: FIG. 18. […] Real-time quantitative RT-PCR was performed with 3 distinct primer sets for HSP70. β-Actin was used as the reference gene and the expression of HSP70 mRNA was analyzed by 2^−ΔΔCT method. The control group treated with DMSO was set as calibrator sample representing the 1×expression. Data are presented as mean±SEM. (n=3 independent experiments, unpaired two-tailed Student's t-test, ** p<0.01)
as §1, with “HSP70 is known to play an essential role in suppressing α-synuclein aggregation, and in particular the inhibition of α-synuclein oligomer formation (Tao et al., 2020).” left out
Total RNA was isolated from the cultured neurons on DIV 5 using RNeasy Mini Kit (50) (Qiagen, Cat #74104) according to the manufacturer's instructions. RNA quantity and purity were determined by spectrophotometric analysis (NanoDrop 2000c; Thermo Scientific). […] Quantitative real-time PCR was performed in the Quant Studio™ 5 Real-Time PCR System (ThermoFisher Scientific) using Power Track™ SYBR Green Master Mix (Invitrogen, Cat #A46109). […]

For `Nc1nc(NC2CC2)c2ncn([C@H]3C=C[C@@H](CO)C3)c2n1` [Abacavir, abacavir], which “HSP70 fluorescence compared to vehicle control” value (HSP70) is on record?
The value was “significantly increased”.

What about the “HSP70 mRNA levels compared with vehicle control” value (HSP70 mRNA) of the same compound?
Its value is “increased”.
